Experimental data: patent US20150025105A1, “INDOLIZINE DERIVATIVES” (priority 2012, published 2015)
Where two headings read alike, the source gives them in different places.

How the values were obtained:
Assay type in all cases: biochemical
human Lp-PLA2 = target: T1, human Lp-PLA2 (Homo sapiens, UniProt Q13093); assay: Lp-PLA2 inhibition assay (UV-spectrometry, 2-thio-PAF/DTNB, 96-well)
T1 construct: purchased Cayman Chemical
T1 sequence (Q13093 22-441): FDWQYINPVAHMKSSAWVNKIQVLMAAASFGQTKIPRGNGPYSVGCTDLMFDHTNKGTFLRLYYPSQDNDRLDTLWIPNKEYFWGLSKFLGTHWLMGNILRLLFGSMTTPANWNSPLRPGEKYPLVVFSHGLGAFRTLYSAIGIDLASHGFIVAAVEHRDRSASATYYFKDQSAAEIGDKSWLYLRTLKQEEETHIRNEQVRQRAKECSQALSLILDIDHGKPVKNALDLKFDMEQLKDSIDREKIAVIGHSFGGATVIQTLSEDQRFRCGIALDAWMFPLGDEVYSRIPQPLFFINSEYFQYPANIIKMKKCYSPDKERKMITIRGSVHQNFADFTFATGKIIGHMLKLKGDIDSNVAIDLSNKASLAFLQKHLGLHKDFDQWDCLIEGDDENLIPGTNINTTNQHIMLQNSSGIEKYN
Protocol: The ability of synthesized indolizine derivatives (6) to inhibit (IC50 values, μM) human Lp-PLA2 (Cayman Chemical, Ann Arbor, Mich.) was determined based on a UV-spectrometry assay using 96-well plate format. […] The concentration of the test compound causing 50% inhibition (IC50, μM) was determined from the concentration-inhibition response curve (duplicate to quadruplicate determinations).
(§1) Phospholipase inhibition by synthesized compounds toward human Lp-PLA2, sPLA2 IIA and IV (Cayman Chemical Company, Ann Arbor, Mich.) are evaluated using a 96-well plate format. In this assay, different concentrations of test compounds (0.001-30 μM) are incubated with the PLA2 enzymes. The substrate hydrolysis by PLA2 is monitored by UV-spectroscopy. […] The concentration of the test compound causing 50% inhibition (IC50, μM) is determined from the concentration-inhibition response curve. Isothermal calorimetry (ITC) experiments using will be carried out to determine binding constant (KB) and dissociation constant (KD) of Lp-PLA2 inhibitors (Ann. Rev. Biophy. 37, 135-151, 2008; J. Am. Chem. Soc. 125, 10570-10579, 2003)]. Reference compounds (eg: varespladib and darapladib) will be used for comparison.

sPLA2 IIA = target: T2, sPLA2 IIA (Homo sapiens, UniProt P14555); assay: Phospholipase A2 (PLA2) inhibition assay, sPLA2 IIA; conditions: Table 2; for Selectivity Index (sPLA2/Lp-PLA2): ratio of sPLA2 IIA IC50 to Lp-PLA2 IC50
T2 construct: purchased Cayman Chemical Company
T2 sequence (P14555 21-144): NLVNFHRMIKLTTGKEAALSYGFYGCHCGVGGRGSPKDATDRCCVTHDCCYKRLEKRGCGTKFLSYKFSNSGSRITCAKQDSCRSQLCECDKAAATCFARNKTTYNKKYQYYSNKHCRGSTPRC
Protocol: as §1

human COX-1 = target: T3, human COX-1 (Homo sapiens, UniProt P23219); assay: Cyclooxygenase (COX) inhibition assay, COX-1 (enzyme immunoassay); conditions: Table 2
T3 construct: purchased Cayman Chemical
Protocol: (§2) The ability of the test compounds to inhibit (IC50 values, μM) human COX-1 and COX-2 (Cayman Chemical, Ann Arbor) is determined PGF2α, produced from COX reaction is measured by enzyme immunoassay. Either COX-1 or COX-2 enzyme in the presence of heme and various concentrations of test compound solutions (0.01-10 μM) is incubated after which substrate arachidonic acid is added. The concentration of the test compound causing 50% inhibition (IC50, μM) is calculated from the concentration-inhibition response curve.

human COX-2 = target: T4, human COX-2 (Homo sapiens, UniProt P35354); assay: Cyclooxygenase (COX) inhibition assay, COX-2 (enzyme immunoassay); conditions: Table 2
T4 construct: purchased Cayman Chemical
T4 sequence (P35354 18-604): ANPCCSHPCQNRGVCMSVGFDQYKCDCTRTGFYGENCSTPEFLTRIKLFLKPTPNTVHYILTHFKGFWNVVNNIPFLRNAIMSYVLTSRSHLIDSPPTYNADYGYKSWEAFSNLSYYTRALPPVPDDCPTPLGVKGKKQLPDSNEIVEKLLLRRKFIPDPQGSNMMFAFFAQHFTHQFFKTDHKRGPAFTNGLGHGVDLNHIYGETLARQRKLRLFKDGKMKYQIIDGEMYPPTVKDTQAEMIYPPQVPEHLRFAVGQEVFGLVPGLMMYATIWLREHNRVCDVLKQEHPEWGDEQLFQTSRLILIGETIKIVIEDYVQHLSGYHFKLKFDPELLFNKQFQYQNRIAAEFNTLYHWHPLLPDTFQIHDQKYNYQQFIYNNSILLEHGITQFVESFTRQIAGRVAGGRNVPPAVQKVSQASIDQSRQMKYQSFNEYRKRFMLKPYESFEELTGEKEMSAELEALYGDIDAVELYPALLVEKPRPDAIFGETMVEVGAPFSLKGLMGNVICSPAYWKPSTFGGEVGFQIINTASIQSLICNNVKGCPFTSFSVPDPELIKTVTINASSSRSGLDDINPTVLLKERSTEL
Protocol: as §2

[1] = Table 1, substrate 2-thio-PAF, DTNB, 0.1M Tris-HCl pH 7.2, read-out: Lp-PLA2 (IC50)
[2] = Table 2, read-out: Lp-PLA2 Inhibition (IC50)

T3 sequence (P23219 24-599): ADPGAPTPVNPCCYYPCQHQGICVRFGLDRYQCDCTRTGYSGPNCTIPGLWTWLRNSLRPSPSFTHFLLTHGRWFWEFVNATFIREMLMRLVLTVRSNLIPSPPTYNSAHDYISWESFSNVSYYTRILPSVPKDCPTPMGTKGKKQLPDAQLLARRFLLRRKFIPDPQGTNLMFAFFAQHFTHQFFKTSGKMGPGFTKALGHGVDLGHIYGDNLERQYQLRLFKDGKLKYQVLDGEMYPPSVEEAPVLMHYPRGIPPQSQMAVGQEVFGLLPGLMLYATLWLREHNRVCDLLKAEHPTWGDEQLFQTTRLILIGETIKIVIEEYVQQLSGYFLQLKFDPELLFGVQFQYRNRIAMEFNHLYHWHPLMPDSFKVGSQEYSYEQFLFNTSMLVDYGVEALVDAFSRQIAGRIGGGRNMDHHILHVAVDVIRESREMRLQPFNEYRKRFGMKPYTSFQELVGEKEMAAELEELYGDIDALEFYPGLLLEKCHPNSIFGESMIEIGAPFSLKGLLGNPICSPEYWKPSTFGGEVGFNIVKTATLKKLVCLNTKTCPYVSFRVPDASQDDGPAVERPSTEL

`CC(=O)c1c(-c2ccccc2)c(C(=O)c2ccc(F)c(F)c2)c2ccccn12` [Cmpd 12, 1-[1-(3,4-difluorobenzoyl)-2-phenylindolizin-3-yl]ethanone] showed an IC50 (human Lp-PLA2; [1]) of 790 nM.

For `CC(=O)c1c(-c2ccccc2)c(C(=O)c2ccc(F)cc2)c2ccccn12` [Cmpd 8, 1-[1-(4-fluorobenzoyl)-2-phenylindolizin-3-yl]ethanone], the IC50 (human Lp-PLA2; [1]) was 250 nM, the IC50 (human Lp-PLA2; [2]) was 570 nM and the IC50 (sPLA2 IIA) was over 10000 nM. The “Selectivity Index (sPLA2/Lp-PLA2)” value (sPLA2 IIA) was over 17.5, the IC50 (human COX-1) was over 10000 nM and the IC50 (human COX-2) was over 10000 nM.

`CSc1ccc(C(=O)c2c(-c3ccccc3)c(C(C)=O)n3ccccc23)cc1` [Cmpd 6, 1-[1-(4-(methylthio)benzoyl)-2-phenylindolizin-3-yl]ethanone] showed an IC50 (human Lp-PLA2; [1]) of 240 nM, an IC50 (human Lp-PLA2; [2]) of 250 nM and an IC50 (sPLA2 IIA) of over 10000 nM. For the same compound, the “Selectivity Index (sPLA2/Lp-PLA2)” value (sPLA2 IIA) was over 40, the IC50 (human COX-1) was over 10000 nM and the IC50 (human COX-2) was over 10000 nM.

Work on `CC(=O)c1c(-c2ccccc2)c(C(=O)c2ccc(C(C)C)cc2)c2ccccn12` [Cmpd 3, 1-[1-(4-isopropylbenzoyl)-2-phenylindolizin-3-yl]ethanone] yielded an IC50 (human Lp-PLA2; [1]) of 800 nM, an IC50 (human Lp-PLA2; [2]) of 800 nM and an IC50 (sPLA2 IIA) of over 10000 nM. For the same compound, the “Selectivity Index (sPLA2/Lp-PLA2)” value (sPLA2 IIA) was over 12.5, the IC50 (human COX-1) was over 10000 nM and the IC50 (human COX-2) was over 10000 nM.

With `CC(=O)c1c(-c2ccccc2)c(C(=O)c2ccccc2)c2ccccn12` [Cmpd 1] the IC50 (human Lp-PLA2; [1]) was 510 nM, the IC50 (human Lp-PLA2; [2]) was 510 nM and the IC50 (sPLA2 IIA) was over 10000 nM. For the same compound, the “Selectivity Index (sPLA2/Lp-PLA2)” value (sPLA2 IIA) was over 19.6, the IC50 (human COX-1) was over 10000 nM and the IC50 (human COX-2) was over 10000 nM.

In the case of `CC(=O)c1c(-c2ccccc2)c(C(=O)c2ccc(Cl)cc2)c2ccccn12` [Cmpd 10, 1-[1-(4-chlorobenzoyl)-2-phenylindolizin-3-yl]ethanone], the IC50 (human Lp-PLA2; [1]) is reported as 700 nM, the IC50 (human Lp-PLA2; [2]) is reported as 940 nM and the IC50 (sPLA2 IIA) is reported as over 10000 nM. The “Selectivity Index (sPLA2/Lp-PLA2)” value (sPLA2 IIA) was over 10.6, the IC50 (human COX-1) was over 10000 nM and the IC50 (human COX-2) was over 10000 nM.

`CC(=O)c1c(-c2ccc(C)cc2)c(C(=O)c2ccccc2)c2ccccn12` [Cmpd 11, 1-[1-benzoyl-2-p-tolylindolizin-3-yl]ethanone] gave an IC50 (human Lp-PLA2; [1]) of 20 nM.

`CC(=O)c1c(-c2ccccc2)c(C(=O)c2ccc(C)cc2)c2ccccn12` [Cmpd 2, 1-[1-(4-methylbenzoyl)-2-phenylindolizin-3-yl]ethanone] was tested, and the IC50 (human Lp-PLA2; [1]) was 30 nM, the IC50 (human Lp-PLA2; [2]) was 20 nM and the IC50 (sPLA2 IIA) was over 10000 nM. For the same compound, the “Selectivity Index (sPLA2/Lp-PLA2)” value (sPLA2 IIA) was over 500, the IC50 (human COX-1) was over 10000 nM and the IC50 (human COX-2) was over 10000 nM.

`CC(=O)c1c(-c2ccccc2)c(C(=O)c2ccc(C(F)(F)F)cc2)c2ccccn12` [Cmpd 7, 1-[2-phenyl-1-(4-(trifluoromethyl)benzoyl)indolizin-3-yl]ethanone] was tested, and the IC50 (human Lp-PLA2; [1]) was 60 nM, the IC50 (human Lp-PLA2; [2]) was 60 nM and the IC50 (sPLA2 IIA) was over 10000 nM. The “Selectivity Index (sPLA2/Lp-PLA2)” value (sPLA2 IIA) was over 166.6, the IC50 (human COX-1) was over 10000 nM and the IC50 (human COX-2) was over 10000 nM.

For `CC(=O)c1c(-c2ccccc2)c(C(=O)c2ccc(Br)cc2)c2ccccn12` [Cmpd 9, 1-[1-(4-bromobenzoyl)-2-phenylindolizin-3-yl]ethanone], the IC50 (human Lp-PLA2; [1]) was 940 nM, the IC50 (human Lp-PLA2; [2]) was 700 nM and the IC50 (sPLA2 IIA) was over 10000 nM. The “Selectivity Index (sPLA2/Lp-PLA2)” value (sPLA2 IIA) was over 14.2, the IC50 (human COX-1) was over 10000 nM and the IC50 (human COX-2) was over 10000 nM.

In the case of `COc1ccc(C(=O)c2c(-c3ccccc3)c(C(C)=O)n3ccccc23)cc1` [Cmpd 5, 1-[1-(4-methoxybenzoyl)-2-phenylindolizin-3-yl]ethanone], the IC50 (human Lp-PLA2; [1]) is reported as 760 nM, the IC50 (human Lp-PLA2; [2]) is reported as 760 nM and the IC50 (sPLA2 IIA) is reported as over 10000 nM. For the same compound, the “Selectivity Index (sPLA2/Lp-PLA2)” value (sPLA2 IIA) was over 13.1, the IC50 (human COX-1) was over 10000 nM and the IC50 (human COX-2) was over 10000 nM.

In the case of `CCCCc1ccc(C(=O)c2c(-c3ccccc3)c(C(C)=O)n3ccccc23)cc1` [Cmpd 4], the IC50 (human Lp-PLA2; [1]) is reported as 290 nM, the IC50 (human Lp-PLA2; [2]) is reported as 300 nM and the IC50 (sPLA2 IIA) is reported as over 10000 nM. For the same compound, the “Selectivity Index (sPLA2/Lp-PLA2)” value (sPLA2 IIA) was over 33.3, the IC50 (human COX-1) was over 10000 nM and the IC50 (human COX-2) was over 10000 nM.
